Legend:
[1] = biological target: dopamine D3 receptor (Macaca mulatta, UniProt F6U709); test: radioligand saturation binding by quantitative autoradiography on brain sections
[2] = biological target: dopamine D3 receptor (rD3) (Rattus norvegicus, UniProt P19020); test: radioligand saturation binding
[3] = biological target: dopamine D3 receptor (hD3) (Homo sapiens, UniProt P35462); test: radioligand saturation binding
Chain of dopamine D3 receptor (hD3) (P35462 whole entry): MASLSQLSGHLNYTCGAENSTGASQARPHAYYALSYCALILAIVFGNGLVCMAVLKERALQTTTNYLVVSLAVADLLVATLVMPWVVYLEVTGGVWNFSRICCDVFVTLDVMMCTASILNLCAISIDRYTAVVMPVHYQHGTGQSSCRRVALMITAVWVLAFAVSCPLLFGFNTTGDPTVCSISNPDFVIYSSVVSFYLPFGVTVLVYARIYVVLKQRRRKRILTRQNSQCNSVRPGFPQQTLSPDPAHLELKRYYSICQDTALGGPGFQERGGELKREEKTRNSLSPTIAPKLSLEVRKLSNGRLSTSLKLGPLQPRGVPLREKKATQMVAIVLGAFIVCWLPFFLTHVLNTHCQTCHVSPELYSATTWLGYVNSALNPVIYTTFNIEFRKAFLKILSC

Chain of dopamine D3 receptor (F6U709 1-400): as the sequence (P35462 whole entry) above, with S3P, A17V, I101V, A151T, P247R, K281R counted along it
Chain of dopamine D3 receptor (rD3) (P19020 whole entry): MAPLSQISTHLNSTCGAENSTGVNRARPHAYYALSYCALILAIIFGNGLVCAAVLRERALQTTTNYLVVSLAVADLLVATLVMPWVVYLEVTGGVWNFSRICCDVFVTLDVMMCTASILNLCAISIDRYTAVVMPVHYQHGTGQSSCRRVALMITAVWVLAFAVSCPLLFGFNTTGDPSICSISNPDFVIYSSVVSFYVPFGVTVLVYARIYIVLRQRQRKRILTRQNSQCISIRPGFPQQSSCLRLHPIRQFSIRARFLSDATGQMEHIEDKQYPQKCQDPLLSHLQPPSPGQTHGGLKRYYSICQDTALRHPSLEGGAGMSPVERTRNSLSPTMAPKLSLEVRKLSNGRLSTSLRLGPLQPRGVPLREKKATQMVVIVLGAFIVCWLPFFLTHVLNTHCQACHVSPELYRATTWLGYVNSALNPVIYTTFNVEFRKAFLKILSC

Row | Kd [1] [nM] | Structure (SMILES) | Kd [2] [nM] | Kd [3] [nM]
1 | 1.1 | COc1ccccc1N1CCN(CCCCNC(=O)c2ccc(N(C)C)cc2)CC1 [WC-10, 4-(Dimethylamino)-N-(4-(4-(2-methoxyphenyl)piperazin-1-yl)butyl)benzamide] | – | –
2 | – | CCN1CCC[C@H]1CNC(=O)c1c(O)c(Cl)cc(Cl)c1OC [[^3H]raclopride] | 17.1 ± 1.7 | 18 ± 1

From PMC2783604 (Synapse (New York, N.Y.), 2009)
